Results from PubChem BioAssay AID1259408 (Genetic Toxicology Data Bank (GENE-TOX), 2018).
The source made the active and inactive calls. No rule for the calls is given here.

Tested on: GENE-TOX genotoxicity assays, various organisms and cells
Test: GENE-TOX mutagenicity studies
Details: for call: Assay Type: In vivo carcinogenicity studies
[1] = Species/Cell Type: Chinese hamster lung (V79) cells, Assay Type: Forward gene mutation at the HPRT or ouabain locus, Assay Code: V79-, Evaluation Type: Evaluation A (Pre-1980)
[2] = Species/Cell Type: Nonhuman, Assay Code: CCGT, Evaluation Type: Evaluation A (Pre-1980)
[3] = Species/Cell Type: Escherichia coli polA (W3119 vs P3478), Assay Type: Rec-assay, DNA effects (bacterial DNA repair), Assay Code: RE1T, Evaluation Type: Evaluation A (Pre-1980)
[4] = Species/Cell Type: Human diploid fibroblasts, Assay Type: Unscheduled DNA synthesis (UDS) in vitro, DNA effects, Assay Code: UDH-, Evaluation Type: Evaluation A (Pre-1980)
[5] = Species/Cell Type: Nonhuman, Assay Code: CCG+L, Evaluation Type: Evaluation A (Pre-1980)
[6] = Species/Cell Type: Salmonella typhimurium (one or more of the five standard strains: TA98, TA100, TA1535, TA1537, and TA1538), Assay Type: Histidine reverse gene mutation, Ames assay, Assay Code: SAL+*, Activation: With metabolic activation, Evaluation Type: Evaluation A (Pre-1980)
[7] = Species/Cell Type: Salmonella typhimurium, Assay Type: Forward and reverse gene mutation, host-mediated assay, Assay Code: HMA+, Evaluation Type: Evaluation A (Pre-1980)
[8] = Species/Cell Type: Bacillus subtilis (H17 vs M45), Assay Type: Rec-assay, spot test, DNA effects (bacterial DNA repair), Assay Code: REWT, Evaluation Type: Evaluation A (Pre-1980)
[9] = Species/Cell Type: Drosophila melanogaster, Assay Type: Sex-linked recessive lethal gene mutation, Assay Code: SRL-, Evaluation Type: Evaluation A (Pre-1980)
[10] = Species/Cell Type: Escherichia coli WP2 UVRA, Assay Type: Tryptophan reverse gene mutation, Assay Code: WPU-*, Activation: With metabolic activation, Evaluation Type: Evaluation A (Pre-1980)
[11] = Species/Cell Type: Saccharomyces cerevisiae, Assay Type: Mitotic recombination or gene conversion, Assay Code: YEH-, Evaluation Type: Evaluation A (Pre-1980)
[12] = Species/Cell Type: Salmonella typhimurium (one or more of the five standard strains: TA98, TA100, TA1535, TA1537, and TA1538), Assay Type: Histidine reverse gene mutation, Ames assay, Assay Code: SAL-, Evaluation Type: Evaluation A (Pre-1980)
[13] = Species/Cell Type: Drosophila melanogaster, Assay Type: Sex-linked recessive lethal gene mutation, Assay Code: SRL+, Evaluation Type: Evaluation A (Pre-1980)
[14] = Species/Cell Type: Salmonella typhimurium (one or more of the five standard strains: TA98, TA100, TA1535, TA1537, and TA1538), Assay Type: Histidine reverse gene mutation, Ames assay, Assay Code: SAL+, Evaluation Type: Evaluation A (Pre-1980)
[15] = Species/Cell Type: Nonhuman, Assay Code: CCG+, Evaluation Type: Evaluation A (Pre-1980)
[16] = Species/Cell Type: Human lymphocytes, Assay Type: Sister-chromatid exchange (SCE) in vitro, Assay Code: SCLT, Evaluation Type: Evaluation B (Post-1980)
[17] = Species/Cell Type: Human, Assay Type: Sister-chromatid exchange (SCE) in vitro, Assay Code: SC1T, Evaluation Type: Evaluation B (Post-1980)
[18] = Species/Cell Type: Glycine max (soybean), Assay Type: Gene mutation, Assay Code: GLM-, Evaluation Type: Evaluation A (Pre-1980)

O[C@@H]1c2ccccc2-c2cc3ccc4ccccc4c3cc2[C@@H]1O
mutagenic call [1]: inactive; negative
mutagenic call (Species/Cell Type: Mouse prostate cells, Assay Type: Cell transformation, Assay Code: CTM-, Evaluation Type: Evaluation A (Pre-1980)): inactive; negative
mutagenic call (Species/Cell Type: Syrian hamster embryo (SHE) cells, Assay Type: Cell transformation, clonal assay, Assay Code: CTC+, Evaluation Type: Evaluation A (Pre-1980)): active; positive

C[C@@]1(O)C=Cc2cc3c(ccc4ccccc43)c3c2[C@@]1(O)CC3
mutagenic call [1]: inactive; negative
call [2]: no conclusion
mutagenic call (Species/Cell Type: Salmonella typhimurium (one or more of the five standard strains: TA98, TA100, TA1535, TA1537, and TA1538), Assay Type: Histidine reverse gene mutation, Ames assay, Assay Code: SALT, Evaluation Type: Evaluation A (Pre-1980)): no conclusion

Cc1cc(N(C)C)ccc1N=Nc1ccccc1
mutagenic call (Species/Cell Type: Escherichia coli polA (W3110 vs P3478), Assay Type: Rec-assay, DNA effects (bacterial DNA repair), Assay Code: RE2-, Evaluation Type: Evaluation A (Pre-1980)): inactive; negative
mutagenic call [3]: no conclusion
mutagenic call (Species/Cell Type: Fischer rat embryo (RLV/1706) cells, Assay Type: Cell transformation, viral enhanced, Assay Code: CTR+, Evaluation Type: Evaluation A (Pre-1980)): active; positive
mutagenic call [4]: inactive; negative
mutagenic call (Species/Cell Type: Mouse (BALB/c-3T3) cells, Assay Type: Cell transformation, Assay Code: CTB-, Evaluation Type: Evaluation A (Pre-1980)): inactive; negative
call [5]: active; positive
mutagenic call (Species/Cell Type: Nonhuman, Assay Type: Sister-chromatid exchange (SCE) in vitro, Assay Code: SC2+D, Dose Response: With dose response, Evaluation Type: Evaluation A (Pre-1980)): active; positive
mutagenic call (Species/Cell Type: Rat primary hepatocytes, Assay Type: Unscheduled DNA synthesis (UDS) in vitro, DNA effects, Assay Code: UDPT, Evaluation Type: Evaluation A (Pre-1980)): no conclusion
mutagenic call (Species/Cell Type: Saccharomyces cerevisiae, Assay Type: Mitotic recombination or gene conversion, Assay Code: YEH+/-*, Activation: With metabolic activation, Evaluation Type: Evaluation A (Pre-1980)): inactive; positive without activation, negative with activation
mutagenic call [6]: active; positive
mutagenic call [7]: active; positive
mutagenic call (Species/Cell Type: Syrian hamster embryo (SHE) cells, Assay Type: Cell transformation, clonal assay, Assay Code: CTC-, Evaluation Type: Evaluation A (Pre-1980)): inactive; negative

CCOP(=S)(OCC)Oc1ccc(S(C)=O)cc1 (configuration not stated)
mutagenic call [8]: no conclusion
mutagenic call [9]: inactive; negative
mutagenic call [10]: inactive; negative
mutagenic call [3]: no conclusion
mutagenic call [4]: inactive; negative
mutagenic call (Species/Cell Type: Nonhuman, Assay Type: Sister-chromatid exchange (SCE) in vitro, Assay Code: SC2T, Evaluation Type: Evaluation B (Post-1980)): no conclusion
mutagenic call [11]: inactive; negative
mutagenic call [12]: inactive; negative

C[CH2][Hg][N](c1ccccc1)S(=O)(=O)c1ccc(C)cc1
mutagenic call [13]: active; positive

ONc1cccc2ccccc12
mutagenic call (Species/Cell Type: Escherichia coli polA (W3119 vs P3478), Assay Type: Rec-assay, DNA effects (bacterial DNA repair), Assay Code: RE1+, Evaluation Type: Evaluation A (Pre-1980)): active; positive
mutagenic call (Species/Cell Type: Neurospora crassa, Assay Type: Forward gene mutation, Assay Code: NEF+, Evaluation Type: Evaluation A (Pre-1980)): active; positive
call [5]: active; positive
mutagenic call (Species/Cell Type: Saccharomyces cerevisiae, Assay Type: Mitotic recombination or gene conversion, Assay Code: YEH+, Evaluation Type: Evaluation A (Pre-1980)): active; positive
mutagenic call [14]: active; positive
mutagenic call (Species/Cell Type: Salmonella typhimurium, Assay Type: Forward and reverse gene mutation, host-mediated assay, Assay Code: HMA-, Evaluation Type: Evaluation A (Pre-1980)): inactive; negative

C/C=C/c1cn([C@H]2C[C@H](O)[C@@H](CO)O2)c(=O)[nH]c1=O
mutagenic call (Species/Cell Type: Human, Assay Type: Sister-chromatid exchange (SCE) in vitro, Assay Code: SC1+D, Dose Response: With dose response, Evaluation Type: Evaluation B (Post-1980)): active; positive

O=C1OC(CN2CCOCC2)CN1/N=C/c1ccc([N+](=O)[O-])o1 (configuration not stated)
mutagenic call (Species/Cell Type: Escherichia coli WP2, Assay Type: Tryptophan reverse gene mutation, Assay Code: WP2+, Evaluation Type: Evaluation A (Pre-1980)): active; positive
mutagenic call (Species/Cell Type: Escherichia coli WP2 UVRA, Assay Type: Tryptophan reverse gene mutation, Assay Code: WPU+, Evaluation Type: Evaluation A (Pre-1980)): active; positive
mutagenic call (Species/Cell Type: Escherichia coli WP2 UVRA, Assay Type: Tryptophan reverse gene mutation, Assay Code: WPU+D, Dose Response: With dose response, Evaluation Type: Evaluation A (Pre-1980)): active; positive
call [15]: active; positive

CSc1nnc(C(C)(C)C)c(=O)n1N
mutagenic call (Species/Cell Type: Saccharomyces cerevisiae, Assay Type: Mitotic recombination or gene conversion, Assay Code: YEC-, Evaluation Type: Evaluation A (Pre-1980)): inactive; negative

CS(=O)(=O)OC/C=C\COS(C)(=O)=O
mutagenic call (Species/Cell Type: Drosophila melanogaster, Assay Type: Sex-linked recessive lethal gene mutation, Assay Code: SRLT, Evaluation Type: Evaluation A (Pre-1980)): no conclusion

CC1=CCc2c1c(C)cc1c2ccc2ccccc21
mutagenic call [6]: active; positive

Cc1cc2c(c3ccc4ccccc4c13)CCCC2=O
mutagenic call [6]: active; positive

Cc1c2c(c(C)c3ccccc13)[C@H]1O[C@H]1c1ccccc1-2
mutagenic call [13]: active; positive
mutagenic call (Species/Cell Type: Mouse prostate cells, Assay Type: Cell transformation, Assay Code: CTM+D, Dose Response: With dose response, Evaluation Type: Evaluation A (Pre-1980)): active; positive
mutagenic call [14]: active; positive

ClC(Cl)=C(c1ccc(Cl)cc1)c1ccccc1Cl
mutagenic call (Species/Cell Type: Nonhuman, Assay Type: Chromosome aberrations in vitro, Assay Code: CY&-, Evaluation Type: Evaluation A (Pre-1980)): inactive; negative

Cn1c(=O)c2c(ncn2CC(O)CO)n(C)c1=O (configuration not stated)
mutagenic call [16]: no conclusion
mutagenic call [17]: no conclusion

NC[C@@H]1CC[C@@H](N)[C@@H](O[C@H]2[C@H](O)[C@@H](O[C@H]3O[C@H](CO)[C@@H](O)[C@H](N)[C@H]3O)[C@H](N)C[C@@H]2N)O1
mutagenic call [11]: inactive; negative

CCCOP(=S)(OCCC)OP(=S)(OCCC)OCCC
mutagenic call [8]: no conclusion
mutagenic call [9]: inactive; negative
mutagenic call [10]: inactive; negative
mutagenic call [3]: no conclusion
mutagenic call [4]: inactive; negative
mutagenic call [11]: inactive; negative
mutagenic call [12]: inactive; negative

CN(CCCCCC(=O)OC[C@H](N)C(=O)O)N=O
mutagenic call (Species/Cell Type: Escherichia coli polA (W3110 vs P3478), Assay Type: Rec-assay, DNA effects (bacterial DNA repair), Assay Code: RE2T, Evaluation Type: Evaluation A (Pre-1980)): no conclusion
mutagenic call [3]: no conclusion

O=NN1CCN(N=O)CC1
mutagenic call [13]: active; positive
mutagenic call (Species/Cell Type: Drosophila melanogaster, Sex: Male, Assay Type: Heritable translocation test, chromosome aberrations, Assay Code: DHTT, Evaluation Type: Evaluation A (Pre-1980)): no conclusion
mutagenic call [18]: inactive; negative
mutagenic call (Species/Cell Type: Mouse embryo (AKR/ME) cells, Assay Type: Cell transformation, Assay Code: CTK+, Evaluation Type: Evaluation A (Pre-1980)): active; positive
call [15]: active; positive
mutagenic call [6]: active; positive
mutagenic call [7]: active; positive

Cc1cn([C@H]2C[C@H](O)[C@@H](CO)O2)c(=O)[nH]c1=O
mutagenic call (Species/Cell Type: Chinese hamster lung (V79) cells, Assay Type: Forward gene mutation at the HPRT or ouabain locus, Assay Code: V79+, Evaluation Type: Evaluation A (Pre-1980)): active; positive
mutagenic call [18]: inactive; negative
mutagenic call [16]: no conclusion
mutagenic call [17]: no conclusion
mutagenic call (Species/Cell Type: Mouse (C3H/10T1/2) cells, Assay Type: Cell transformation, Assay Code: CTH-, Evaluation Type: Evaluation A (Pre-1980)): inactive; negative
call [2]: no conclusion
mutagenic call (Species/Cell Type: Nonhuman, Assay Type: Sister-chromatid exchange (SCE) in vitro, Assay Code: SC2+D, Dose Response: With dose response, Evaluation Type: Evaluation B (Post-1980)): active; positive
